In patent US9567319B2, “Compound having higher inhibitory activity on protein kinase G and preparation method thereof” (Jenkem Technology Co., Ltd., (Tianjin), priority 2014, dated 2017):
“And” between values parts separate entries of the source, which are not always exact repeats. Equal values may be shown once.

Tests used:
[1] = tested on: hyperalgesia induced by Freund's complete adjuvant (CFA) in rats; assay: Von Frey filament test, CFA induced hyperalgesia in rats; type: in vivo, SD rats; details: for Von Frey Filament Test Values (Mean ± SD), Baseline: pretreatment, n=8; for Von Frey Filament Test Values (Mean ± SD), 15 min: 15 min post treatment; for Von Frey Filament Test Values (Mean ± SD), 2 h: 2 h post treatment
Experimental: Compounds 46 and JK-02A were prepared according to the disclosure of US patent application No. US2008/0176920, and compound JK-02H was prepared according to Example 1. A repeat efficacy study was carried out on the same batch of animals with a single-dose treatment followed by a washing-out period. The 14 days in life studies included two stages: a single low dose treatment assessment on the 7th day and then a single high dose treatment test on the 14th day after CFA injection. On the 7th day after CFA injection, the rats were randomly assigned to respective groups using a computer generated randomization procedure based on the body weight and the baseline values of Von Frey and weight bearing test. Animals received corresponding single dose treatments (vehicle and 3 test articles) on the 7th and 14th days after CFA injection, respectively, and the effect of the test compounds were evaluated. Hyperalgesia of all the study animals was assessed following a single low dose treatment with the test articles on day 7, while a single high dose effect of the test article was evaluated on day 14. The mechanical hyperalgesia and weight bearing were measured on day 7 and day 14 after CFA injection, followed by administration of control or test articles. Von Frey filaments and weight bearing were measured on all the study animals at three time points on day 7, and four time points on day 14. An extra time point assessment was conducted on day 14, considering the strong analgesic effect of the test articles at a higher dose noticed during the test at the 3th time point. Mechanical hyperalgesia of the left hind paw was measured before and during the course of study in all animal groups by determining withdrawal thresholds to Von Frey filament (Bioseb, France). Increasing tensile force perpendicular to the plantar surface of the paw was applied to the filaments. The threshold for paw withdrawal was calculated by taking the average of 2-3 repeated stimuli (unit in “g”). On day 7, Von Frey Filament measurements were conducted three times, at the time points of pretreatment, 15 min and 2 hours post treatment. Following a one-week washing out period, on day 14 after CFA injection, Von Frey Filament tests were performed again four times post a single high dose administration. Rats treated with vehicle or high dose test articles were measured at the time points of pretreatment, 15 min, 2 and 5 hours post treatment. All the results were expressed as mean±SD. One-way analysis of variance (ANOVA) followed by a multiple comparison test were applied among the groups, p<0.05 accepted as significant.

[2] = tested on: hyperalgesia induced by Freund's complete adjuvant (CFA) in rats; assay: Weight bearing test, CFA induced hyperalgesia in rats; type: in vivo, SD rats; details: for Weight Bearing Test Values (Mean ± SD), Baseline: pretreatment, n=8; for Weight Bearing Test Values (Mean ± SD), 15 min: 15 min post treatment; for Weight Bearing Test Values (Mean ± SD), 2 h: 2 h post treatment
Experimental: Compounds 46 and JK-02A were prepared according to the disclosure of US patent application No. US2008/0176920, and compound JK-02H was prepared according to Example 1. A repeat efficacy study was carried out on the same batch of animals with a single-dose treatment followed by a washing-out period. The 14 days in life studies included two stages: a single low dose treatment assessment on the 7th day and then a single high dose treatment test on the 14th day after CFA injection. On the 7th day after CFA injection, the rats were randomly assigned to respective groups using a computer generated randomization procedure based on the body weight and the baseline values of Von Frey and weight bearing test. Animals received corresponding single dose treatments (vehicle and 3 test articles) on the 7th and 14th days after CFA injection, respectively, and the effect of the test compounds were evaluated. Hyperalgesia of all the study animals was assessed following a single low dose treatment with the test articles on day 7, while a single high dose effect of the test article was evaluated on day 14. The mechanical hyperalgesia and weight bearing were measured on day 7 and day 14 after CFA injection, followed by administration of control or test articles. Von Frey filaments and weight bearing were measured on all the study animals at three time points on day 7, and four time points on day 14. An extra time point assessment was conducted on day 14, considering the strong analgesic effect of the test articles at a higher dose noticed during the test at the 3th time point. Rats distributed body weight unequally on the CFA-injected and contra lateral paws, which was measured by a weight balance changing instrument (Bio-medical, USA). The animals were tested in a box constructed to register the weight load exerted by the hind paws by means of force plates inserted in the floor. The mean weight bearing (unit in “g”) between the CFA-injected paw and the contra-lateral paw was determined in 10 seconds. The weight bearing test of all study animals was conducted at the same time intervals as the mechanical hyperalgesia test. All the results were expressed as mean±SD. One-way analysis of variance (ANOVA) followed by a multiple comparison test were applied among the groups, p<0.05 accepted as significant.

[3] = day 7 after CFA, low dose groups (46 and JK-02A 10 mg/kg, JK-02H 5 mg/kg)
[4] = day 7 after CFA, single low dose i.v. (46 and JK-02A 10 mg/kg, JK-02H 5 mg/kg)
[5] = day 14 after CFA, high dose groups (46 and JK-02A 40 mg/kg, JK-02H 20 mg/kg)
[6] = day 14 after CFA, single high dose i.v. (46 and JK-02A 40 mg/kg, JK-02H 20 mg/kg)
[7] = day 14 after CFA, single high dose i.v. (46 and JK-02A 40 mg/kg, JK-02H 20 mg/kg), 5 h post treatment
[8] = individual animal, high dose i.v. (46 and JK-02A 40 mg/kg, JK-02H 20 mg/kg), two repeated stimuli
[9] = individual animal, low dose i.v. (46 and JK-02A 10 mg/kg, JK-02H 5 mg/kg), two repeated stimuli
[10] = individual animal, high dose i.v. (46 and JK-02A 40 mg/kg, JK-02H 20 mg/kg)
[11] = individual animal, low dose i.v. (46 and JK-02A 10 mg/kg, JK-02H 5 mg/kg)

CCCOc1ccc(F)c(F)c1C(=O)c1ccc(C(=O)N[C@@H]2CNC[C@H]2NC(=O)c2ccc3cn[nH]c3c2)cc1 [JK-02A]
Von Frey Filament Test Values (Mean ± SD), Baseline [1, 3]: 6.89 ± 0.99 g | Von Frey Filament Test Values (Mean ± SD), 15 min [1, 4]: 7.64 ± 1.83 g | Von Frey Filament Test Values (Mean ± SD), 2 h [1, 4]: 7.43 ± 1.62 g | Von Frey Filament Test Values (Mean ± SD), Baseline [1, 5]: 6.73 ± 0.74 g | Von Frey Filament Test Values (Mean ± SD), 15 min [1, 6]: 8.63 ± 1.62 g | Von Frey Filament Test Values (Mean ± SD), 2 h [1, 6]: 8.82 ± 1.20 g | Von Frey Filament Test Values (Mean ± SD), 5 h [1, 7]: 8.45 ± 2.18 g | Von Frey Values of Individual Animal, Day 14, 15 min [1, 8]: 9.3 g and 8.9 g and 6.5 g and 7.4 g (2×) and 10.9 g and 9.5 g (2×) and 6.1 g and 12.5 g and 10.6 g and 7.6 g and 9.2 g and 8.5 g and 10.7 g and 9.1 g | Von Frey Values of Individual Animal, Day 14, 2 h [1, 8]: 8.7 g (2×) and 9.8 g and 9.5 g and 9.3 g (2×) and 9.4 g and 9.1 g and 8.5 g and 9.2 g and 8.2 g and 8.9 g and 9.6 g and 10.6 g and 6.2 g and 5.8 g | Von Frey Values of Individual Animal, Day 14, 5 h [1, 8]: 11.9 g and 13.2 g and 6.7 g and 5.2 g and 8.3 g and 9.2 g and 9.7 g and 9.8 g and 8.8 g and 9.9 g and 6.4 g and 5.7 g and 7.3 g and 8.9 g and 7.4 g and 6.8 g | Von Frey Values of Individual Animal, Day 7, 15 min [1, 9]: 9.1 g (3×) and 8.8 g and 6.3 g and 5.6 g (2×) and 10.2 g and 8.9 g and 10.0 g and 9.5 g (2×) and 5.7 g and 7.3 g and 6.0 g and 9.4 g | Von Frey Values of Individual Animal, Day 7, 2 h [1, 9]: 6.6 g and 5.6 g and 7.0 g (3×) and 8.3 g and 7.4 g and 6.0 g and 8.9 g and 10.5 g and 10.4 g and 6.5 g and 7.1 g and 7.3 g and 5.1 g and 4.9 g | First Baseline, Von Frey, individual animal ([1]; individual animal, pretreatment day 7, two repeated stimuli per animal): 5.1 g and 5.9 g and 5.8 g and 6.5 g and 6.9 g and 6.2 g and 5.2 g and 6.8 g (2×) and 7.8 g and 7.3 g and 7.6 g (2×) and 7.9 g and 8.2 g and 8.6 g | Second Baseline, Von Frey, individual animal ([1]; individual animal, pretreatment day 14 after washing-out, two repeated stimuli per animal): 7.1 g (2×) and 5.3 g and 5.2 g and 7.4 g and 7.3 g and 6.0 g and 7.6 g and 6.4 g (2×) and 6.6 g and 7.7 g and 7.5 g (2×) and 5.8 g and 6.7 g | Weight Bearing Test Values (Mean ± SD), Baseline [2, 3]: 48.18 ± 5.05 g | Weight Bearing Test Values (Mean ± SD), 15 min [2, 4]: 38.11 ± 11.23 g | Weight Bearing Test Values (Mean ± SD), 2 h [2, 4]: 36.24 ± 9.72 g | Weight Bearing Test Values (Mean ± SD), Baseline [2, 5]: 49.54 ± 7.39 g | Weight Bearing Test Values (Mean ± SD), 15 min [2, 6]: 28.43 ± 8.83 g | Weight Bearing Test Values (Mean ± SD), 2 h [2, 6]: 33.36 ± 8.92 g | Weight Bearing Test Values (Mean ± SD), 5 h [2, 7]: 42.69 ± 7.52 g | Weight Bearing Values of Individual Animal, Day 14, 15 min, Left [2, 10]: 58.9 g and 57.8 g and 49.6 g and 53.7 g and 52.7 g and 50.9 g and 67.1 g and 72.2 g | Weight Bearing Values of Individual Animal, Day 14, 15 min, Right [2, 10]: 77.1 g and 95.3 g and 77.6 g and 90.1 g and 80.4 g and 80.1 g and 104.0 g and 85.7 g | Weight Bearing Values of Individual Animal, Day 14, 15 min, Δ [2, 10]: 18.2 g and 37.5 g and 28.0 g and 36.4 g and 27.7 g and 29.2 g and 36.9 g and 13.5 g | Weight Bearing Values of Individual Animal, Day 14, 2 h, Left [2, 10]: 66.8 g and 71.9 g and 48.9 g and 60.7 g and 50.1 g and 54.6 g and 44.8 g and 72.2 g | Weight Bearing Values of Individual Animal, Day 14, 2 h, Right [2, 10]: 97.0 g and 106.5 g and 97.2 g and 81.1 g and 79.8 g and 91.1 g and 86.5 g and 97.7 g | Weight Bearing Values of Individual Animal, Day 14, 2 h, Δ [2, 10]: 30.2 g and 34.6 g and 48.3 g and 20.4 g and 29.7 g and 36.5 g and 41.7 g and 25.5 g | Weight Bearing Values of Individual Animal, Day 14, 5 h, Left [2, 10]: 38.0 g and 62.9 g and 55.0 g and 45.7 g and 52.7 g and 39.7 g and 54.9 g and 68.2 g | Weight Bearing Values of Individual Animal, Day 14, 5 h, Right [2, 10]: 77.2 g and 99.3 g and 93.8 g and 90.7 g and 92.0 g and 99.9 g and 95.3 g and 110.4 g | Weight Bearing Values of Individual Animal, Day 14, 5 h, Δ [2, 10]: 39.2 g and 36.4 g and 38.8 g and 45.0 g and 39.3 g and 60.2 g and 40.4 g and 42.2 g | Weight Bearing Values of Individual Animal, Day 7, 15 min, Left [2, 11]: 36.6 g and 56.4 g and 47.8 g and 37.9 g and 36.9 g and 50.5 g and 25.4 g and 65.6 g | Weight Bearing Values of Individual Animal, Day 7, 15 min, Right [2, 11]: 83.8 g and 79.1 g and 74.1 g and 89.5 g and 62.9 g and 93.7 g and 69.1 g and 109.8 g | Weight Bearing Values of Individual Animal, Day 7, 15 min, Δ [2, 11]: 47.2 g and 22.7 g and 26.3 g and 51.6 g and 26.0 g and 43.2 g and 43.7 g and 44.2 g | Weight Bearing Values of Individual Animal, Day 7, 2 h, Left [2, 11]: 68.5 g and 68.0 g and 31.5 g and 39.9 g and 43.9 g and 37.3 g and 52.3 g and 62.2 g | Weight Bearing Values of Individual Animal, Day 7, 2 h, Right [2, 11]: 99.4 g and 85.5 g and 80.7 g and 75.7 g and 77.3 g and 73.4 g and 95.8 g and 105.7 g | Weight Bearing Values of Individual Animal, Day 7, 2 h, Δ [2, 11]: 30.9 g and 17.5 g and 49.2 g and 35.8 g and 33.4 g and 36.1 g and 43.5 g (2×) | First Baseline, Balance Left, individual animal ([2]; individual animal, pretreatment day 7, left (CFA-injected) hind paw): 54.2 g and 57.2 g and 45.5 g and 64.4 g and 45.6 g and 12.0 g and 58.0 g and 64.0 g | First Baseline, Balance Right, individual animal ([2]; individual animal, pretreatment day 7, right hind paw): 103.7 g and 98.1 g and 93.0 g and 117.4 g and 90.5 g and 66.3 g and 100.6 g and 116.7 g | First Baseline, Balance Δ, individual animal ([2]; individual animal, pretreatment day 7, right minus left): 49.5 g and 40.9 g and 47.5 g and 53.0 g and 44.9 g and 54.3 g and 42.6 g and 52.7 g | Second Baseline, Balance Left, individual animal ([2]; individual animal, pretreatment day 14, left (CFA-injected) hind paw): 32.1 g and 47.3 g and 30.4 g and 45.9 g and 50.1 g and 39.6 g and 33.5 g and 57.1 g | Second Baseline, Balance Right, individual animal ([2]; individual animal, pretreatment day 14, right hind paw): 89.3 g and 90.0 g and 81.0 g and 87.2 g and 92.4 g and 90.4 g and 94.1 g and 97.9 g | Second Baseline, Balance Δ, individual animal ([2]; individual animal, pretreatment day 14, right minus left): 57.2 g and 42.7 g and 50.6 g and 41.3 g and 52.3 g and 50.8 g and 60.6 g and 40.8 g
